This note sets out measurements from patent US7736624B2, “Methods and compositions for diagnostic and therapeutic targeting of COX-2” (priority 2006, dated 2010).

One assay addresses T1, COX-2 (Homo sapiens, UniProt P35354).
T1 sequence (P35354 18-604): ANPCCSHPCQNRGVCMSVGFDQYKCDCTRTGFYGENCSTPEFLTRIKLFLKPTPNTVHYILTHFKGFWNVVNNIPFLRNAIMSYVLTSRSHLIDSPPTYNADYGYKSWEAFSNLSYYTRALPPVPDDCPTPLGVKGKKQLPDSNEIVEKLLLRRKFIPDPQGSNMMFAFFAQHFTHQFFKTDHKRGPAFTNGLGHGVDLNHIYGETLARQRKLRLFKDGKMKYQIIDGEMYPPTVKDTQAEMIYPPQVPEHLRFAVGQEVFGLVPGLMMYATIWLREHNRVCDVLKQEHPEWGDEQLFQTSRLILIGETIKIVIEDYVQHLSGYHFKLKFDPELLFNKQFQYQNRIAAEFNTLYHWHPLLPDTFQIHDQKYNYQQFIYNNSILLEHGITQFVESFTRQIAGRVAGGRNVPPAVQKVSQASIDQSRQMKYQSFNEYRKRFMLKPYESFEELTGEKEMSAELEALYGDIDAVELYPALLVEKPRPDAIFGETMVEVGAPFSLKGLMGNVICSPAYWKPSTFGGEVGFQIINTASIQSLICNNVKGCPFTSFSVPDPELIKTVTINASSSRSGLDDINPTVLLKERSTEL
Description: IC50 determinations using purified enzymes (TLC assay), COX-2. In kind it is biochemical. The arrangement: made in house; host or cells: Sf9 insect cells. As to conditions: assayed against purified enzymes, read-out: IC50 COX-2. The text has this:
(§1) Those skilled in the art will appreciate that an evaluation of the selectivity and efficacy of binding of the NSAID derivative to the COX-2 enzyme, e.g., after the derivative is synthesized, can be desirable. […] One example of an in vitro screening method takes advantage of the fact that both human and murine recombinant COX-2 can be expressed and isolated in pure form from an Sf9 cell expression system. […] Alternatively, membrane preparations from outdated human platelets can provide a source of human COX-1. […] The reaction is stopped by the addition of ethanol/methanol/1 M citrate, pH 4.0 (30:4:1). The extracted products are separated by thin layer chromatography (TLC), which allows quantitation of total product formation as well as assessment of product distribution. This assay is useful to define IC50 values for inhibition of either enzyme, and to determine time-dependency of inhibition. It also provides information concerning changes in products formed as a result of inhibition.
(§2) Reactions were terminated by solvent extraction in Et2O/CH3OH/1 M citrate, pH 4.0 (30:4:1). The phases were separated by centrifugation at 2000 g for 5 minutes and the organic phase was spotted on a 20×20 cm TLC plate (Lieselgel 60, EMD Chemicals, Inc., Gibbstown, N.J., United States of America). The plate was developed in EtOAc/CH2Cl2/glacial AcOH (75:25:1) at 4° C. Radiolabeled prostanoid products were quantitatively determined with a radioactivity scanner available from Bioscan, Inc. (Washington, D.C., United States of America). The percentage of total products observed at different concentrations of the presently disclosed compositions was divided by the percentage of products observed for protein samples preincubated for the same amount of time with DMSO.

A further assay deals with T2, ovine COX-1 (Ovis aries, UniProt P05979).
T2 construct: can be purified from ovine seminal vesicles by standard procedures; from tissue; host or cells: ovine seminal vesicles
T2 sequence (P05979 25-600): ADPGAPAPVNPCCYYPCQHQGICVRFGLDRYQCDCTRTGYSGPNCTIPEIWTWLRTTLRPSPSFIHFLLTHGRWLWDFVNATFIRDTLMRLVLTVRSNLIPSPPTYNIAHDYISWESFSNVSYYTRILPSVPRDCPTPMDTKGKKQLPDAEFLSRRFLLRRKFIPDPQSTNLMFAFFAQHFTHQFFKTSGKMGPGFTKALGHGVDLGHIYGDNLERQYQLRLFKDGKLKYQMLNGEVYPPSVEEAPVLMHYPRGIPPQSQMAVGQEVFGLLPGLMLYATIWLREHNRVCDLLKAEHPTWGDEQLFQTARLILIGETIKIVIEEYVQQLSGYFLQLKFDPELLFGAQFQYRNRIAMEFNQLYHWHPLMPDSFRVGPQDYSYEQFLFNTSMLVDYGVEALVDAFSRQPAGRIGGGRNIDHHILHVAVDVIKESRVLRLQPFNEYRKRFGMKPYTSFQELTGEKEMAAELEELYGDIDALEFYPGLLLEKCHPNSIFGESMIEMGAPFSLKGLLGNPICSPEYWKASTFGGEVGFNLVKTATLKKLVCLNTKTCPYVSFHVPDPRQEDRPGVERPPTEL
Description: IC50 determinations using purified enzymes (TLC assay), COX-1. The settings on record: assayed against purified enzymes. It counts as biochemical.
Text: as §1, §2

The structures appear in SMILES notation. Read-outs that look alike come from different tables or passages of the source.

A word on the IC50: it is the concentration that inhibits the measured activity by half. As to `Cc1ccc(-c2cc(CCC(=O)NCCNC(=O)c3ccc(C(=O)[O-])c(C4=c5cc6c7c(c5Oc5c4cc4c8c5CCCN8CCC4)CCC[N+]=7CCC6)c3)nn2-c2ccc(S(N)(=O)=O)cc2)cc1` [Compound 30e], the IC50 at COX-2 (Table 3) and at ovine COX-1 (Table 3) was over 25 µM in each case.
As to `COc1ccc2c(c1)c(CCNC(=O)Cc1ccc(Nc3ccc([N+](=O)[O-])c4nonc34)cc1)c(C)n2Cc1ccc(Br)cc1` [Compound 28c], the IC50 at COX-2 (Table 3) and on ovine COX-1 (Table 3) was over 25 µM in each case.
With `COc1ccc2c(c1)c(CC(=O)NCCCNS(=O)(=O)c1ccc(/N=N/c3ccc(N(C)C)cc3)cc1)c(C)n2C(=O)c1ccc(Cl)cc1` [Compound 27bb], the IC50 stood at 0.134 µM at COX-2 (Table 3) and 0.214 µM against ovine COX-1 (Table 3).
On to `COc1ccc2c(c1)c(CC(=O)OCCN1CCN(CCCN3c4ccccc4Sc4ccc(Cl)cc43)CC1)c(C)n2C(=O)c1ccc(Cl)cc1` [Compound 27v], for which the values for the IC50 on COX-2 (Table 2) and on ovine COX-1 (Table 2) were 0.387 µM and over 25 µM, respectively.
Regarding `COc1ccc2c(c1)c(CC(=O)NCCNC(=O)/C=C/c1ccc(N(C)C)cc1)c(C)n2C(=O)c1ccc(Cl)cc1` [Compound 27hh], the half-inhibitory concentration (IC50) was 0.51 µM at COX-2 (Table 3) and over 25 µM against ovine COX-1 (Table 3).
Taken in the same sequence, the figures for `COc1ccc2c(c1)c(CC(=O)NCCNC(=S)Nc1ccc(-c3c4ccc(=O)cc-4oc4cc(O)ccc34)c(C(=O)O)c1)c(C)n2C(=O)c1ccc(Cl)cc1` [Compound 27jj] were over 25 µM and 5.35 µM.
In the same order, the values of `COc1ccc2c(c1)c(CC(=O)NCCCCNC(=S)Nc1ccc(-c3c4ccc(=O)cc-4oc4cc(O)ccc34)c(C(=O)O)c1)c(C)n2C(=O)c1ccc(Cl)cc1` [Compound 27ll] are 3.1 µM and over 25 µM.
In the same order, the values of `COc1ccc2c(c1)c(CC(=O)NCCCNC(=O)c1ccc(C(=O)[O-])c(-c3c4ccc(=[N+](C)C)cc-4oc4cc(N(C)C)ccc34)c1)c(C)n2C(=O)c1ccc(Cl)cc1` [Compound 27aaa] are 3.9 µM and over 25 µM.
Regarding `COc1ccc2c(c1)c(CC(=O)NCCN1CCN(C(=O)c3ccc(C(=O)[O-])c(C4=c5cc6c7c(c5Oc5c4cc4c8c5CCCN8CCC4)CCC[N+]=7CCC6)c3)CC1)c(C)n2C(=O)c1ccc(Cl)cc1` [Compound 27ccc], the IC50 at COX-2 (Table 3) and against ovine COX-1 (Table 3) was over 25 µM in each case.
In the case of `COc1ccc2c(c1)c(CCNC(=O)c1ccc(C(=O)[O-])c(C3=c4cc5c6c(c4Oc4c3cc3c7c4CCCN7CCC3)CCC[N+]=6CCC5)c1)c(C)n2Cc1ccc(Br)cc1` [Compound 28e], the IC50 on COX-2 (Table 3) and on ovine COX-1 (Table 3) was over 25 µM throughout.
As to `COc1ccc2c(c1)c(CC(=O)NCCCNC(=O)c1cc3ccccc3oc1=O)c(C)n2C(=O)c1ccc(Cl)cc1` [Compound 27ee], the IC50 on COX-2 (Table 3) is 0.6 µM; at ovine COX-1 (Table 3) it was over 25 µM.
Turning to `COc1ccc2c(c1)c(CC(=O)NCCCCNC(=O)c1ccc(-c3c4ccc(=O)cc-4oc4cc(O)ccc34)c(C(=O)O)c1)c(C)n2C(=O)c1ccc(Cl)cc1` [Compound 27pp], the IC50 at COX-2 (Table 3) and against ovine COX-1 (Table 3) was over 25 µM each time.
With `COc1ccc2c(c1)c(CC(=O)NCCNC(=O)c1ccc(C3=c4cc5c6c(c4Oc4c3cc3c7c4CCCN7CCC3)CCC[N+]=6CCC5)c(C(=O)[O-])c1)c(C)n2C(=O)c1ccc(Cl)cc1` [Compound 27ggg], the IC50 on COX-2 (Table 3) amounted to 2.8 µM; against ovine COX-1 (Table 3), 0.5 µM.
Turning to `COC(=O)c1cc(-c2ccc(C)cc2)n(-c2ccc(S(=O)(=O)N(C)C)cc2)n1` [Compound 31], the half-inhibitory concentration (IC50) at COX-2 (Table 2) and on ovine COX-1 (Table 2) was over 25 µM in each case.
For `COc1ccc2c(CC(=O)NCCNC(=O)Cc3c(C)n(C(=O)c4ccc(Cl)cc4)c4ccc(OC)cc34)cc(=O)oc2c1` [Compound 27dd], the IC50 at COX-2 (Table 3) and against ovine COX-1 (Table 3) was over 25 µM each time.
Take `Cc1ccc(-c2cc(CCC(=O)O)nn2-c2ccc(S(C)(=O)=O)cc2)cc1` [Compound 29e]: the IC50 on COX-2 (Table 2) is over 25 µM.
Take `COc1ccc2c(c1)c(CC(=O)Nc1ccc(S(=O)(=O)Nc3cc(OC)nc(OC)n3)cc1)c(C)n2C(=O)c1ccc(Cl)cc1` [Compound 27u]: the IC50 on COX-2 (Table 2) stood at 0.148 µM.
